# Test results reported in PubChem BioAssay AID1508591.
# Conditions: rat; liver microsomes; pH 7.4; 15.0 min; 1.0 µM
row,Compound,half-life
1,CCOc1ccc(NC(=O)c2nc(S(=O)(=O)Cc3ccccc3F)ncc2Cl)cc1,1.43 min
2,O=c1c(-c2cccs2)ccc2n1C[C@H]1C[C@@H]2CN(C2CCOCC2)C1,14.6 min
3,Cc1cc(C)c(C(=O)Nc2cccc([S+](=O)([O-])N3CCCC3)c2)[nH]1,6.5 min
4,Cc1cc(F)ccc1-c1nc(NCCN=C(N)NC#N)nc2c1ccc(=O)n2-c1c(F)cccc1F,5.23 min
5,COc1ccc(Cl)cc1NC(=O)c1sc2nc3c(cc2c1N)N1CCC3CC1,26.4 min
6,Cc1cc(C)nc(NC(=S)N2CCN(c3cccc([N+](=O)[O-])c3)CC2)c1,17 min
7,Cc1cccc(C)c1Nc1c(-c2ccccn2)nc2ccc(Cl)cn12,1.86 min
8,c1cc(-c2cc(-c3ccncc3)c3cncn3c2)c2[nH]ncc2c1,10.1 min
9,COc1cc(NS(=O)(=O)c2ccc(C)cc2)cc(C(=O)Nc2nc(-c3ccccc3)cs2)c1,13 min
10,Cc1sc(NC(=O)Cc2ccc3c(c2)OCO3)nc1-c1ccc2c(c1)CCN2C,5.5 min
11,COc1cc([C@@H](CC(=O)O)c2ccc(C)c(CN3C[C@@H](C)Oc4ccccc4S3(=O)=O)c2)cc2nnn(C)c12,16 min
12,CCNC(=O)Nc1ncc(-c2cc(-c3c(C)cc(OC)cc3C)nc(-c3cnccn3)n2)s1,> 30 min
13,Cc1ccc(-c2cc(C(=O)NCc3cnn(C)c3C)c3cc(Br)ccc3n2)cc1,12 min
14,COc1ccccc1N1CCN(c2ccc3cc(S(=O)(=O)N4CCCCC4)ccc3n2)CC1,2.16 min
15,Clc1ccccc1-c1nccc(-n2ccnc2)n1,> 30 min
16,Cc1cnc(-c2ccccc2C(F)F)nc1NCc1ccc(-c2cccnc2)cc1,8.1 min
17,COCCNC(=O)c1ccc(-c2ccc(N3CCCCC3)nc2)cc1,3.26 min
18,NC(=O)C1CCN(c2nc(-c3cccs3)cs2)CC1,3.98 min
19,Cc1ccccc1-c1nc(NCc2cccs2)c2ccccc2n1,2.74 min
20,N#Cc1ccc(N2N=C3c4ccc(C(=O)O)cc4CC[C@@H]3[C@@H]2C2CCCC2)cc1Cl,> 30 min
21,COCCCNC(=O)c1cc2cc(S(=O)(=O)N(C)C)ccc2n1C,25 min

row,Compound,half-life
1,COc1c(O)ccc2c1CN1CCc3cc4c(cc3[C@@H]1C2)OCO4,18.9 min
2,CC(C)OC(=O)c1ccnc2cc(C(OCCN3CCCCC3)c3ccccc3Cl)sc12 (stereo unspecified),4.49 min
3,CC(C)(Nc1nc(-c2ccccc2C(F)(F)F)nc2ccccc12)c1ccc(-c2cccc(C(F)(F)F)c2)cc1,> 30 min
4,CCCNC(=O)c1ccc2c(c1)ncn2-c1cc(C)cc(C)c1,17 min
5,CCN(CCO)CCCOc1ccc2c(Nc3cc(CC(=O)Nc4cccc(F)c4)[nH]n3)ncnc2c1,1.88 min
6,Cc1cc(-c2nnc3n2CCCCC3)c(C)n1-c1ccc(C(F)(F)F)cc1,2.1 min
7,COc1ccc(C(=O)Nc2nc(-c3ccccc3)cs2)cc1NS(=O)(=O)c1ccc(C)cc1,13 min
8,Cc1ccc(S(=O)(=O)Nc2cnccc2C(=O)Nc2ccc(N3CCOCC3)cc2)cc1,23 min
9,CCn1ncc(NC(=O)Cn2ncc3cc(-c4cccc(OC)c4)ccc32)n1,20.4 min
10,CCOC(=O)N1CCc2c(sc(NCc3ccc(N(C)C)cc3)c2C(=O)Nc2ccc(OC)cc2)C1,> 30 min
11,O=C(Cc1ccc(Cl)c(Cl)c1)Nc1ccc(S(=O)(=O)Nc2ccccc2)cc1,4.2 min
12,O=C(Cc1ccc(Cl)c(Cl)c1)Nc1ccc([S+](=O)([O-])Nc2ccccn2)cc1,8.3 min
13,N#Cc1ccccc1S(=O)(=O)Nc1cnccc1C(=O)Nc1nc(-c2ccccc2)cs1,7 min
14,CC(C)(C)C(=O)C(Oc1ccc(Cl)cc1)n1ccnc1 (stereo unspecified),> 30 min
15,Cc1ccnc(N=C(N)N2CCN(c3cccc(C(F)(F)F)c3)CC2)c1,2.26 min
16,NC(=O)C1CCN(c2nc(-c3ccccc3F)cs2)CC1,3.04 min
17,CCCCCCN(CCCCCC)C(=O)Cc1c(-c2ccc(F)cc2)[nH]c2ccccc12,2.5 min
18,CN(C)c1cccc(-c2nnc(N3CCC(C(N)=O)CC3)s2)c1,15.7 min
19,O=C(Nc1ccc2c(N3CCOCC3)ncnc2c1)c1cccc(Br)c1,10.1 min
20,Cc1ccccc1CSc1nc2ncc(Br)cc2[nH]1,7 min
